Reference: article PMC12818745 (ACS Chemical Neuroscience, 2025)

Tests used:
[1] = molecular target: T1, Aβ42 peptide (Homo sapiens, UniProt P05067); assay: TEM of Aβ42 fibril growth; conditions: Aβ42 10 μM, compound 50 μM, 6–48 h, 37 °C
T1 construct: Synthetic Aβ42 (GenScript) was dissolved in hexafluoro-2-propanol (HFIP); purchased GenScript; host or cells: chemical synthesis
Description: We selected compound 11r for further investigation of its ability to interfere with the Aβ42 aggregation process in vitro. The decision was based on the structural potential of the chromeno[3,4-b]-xanthone scaffold, the encouraging results for 11r, and its overall profile in our preliminary studies. […] The morphological changes of Aβ42 species were assessed through transmission electron microscopy (TEM), in the presence and absence of 11r. […] In the absence of 11r (Figure , top panels), as early as 6 h of incubation at 37 °C, (white arrow), short (white arrowhead) and long fibrils were detected. As incubation progressed, long fibrils were more abundant, while other species became scarce, resulting in bundles of tangled fibrils after 48 h (Figure ).
Synthetic Aβ42 (GenScript) was dissolved in hexafluoro-2-propanol (HFIP) (Merck) and left at room temperature (RT) for 48 h. Subsequently, the HFIP was removed using a stream of nitrogen, and the resulting powder was dissolved in dimethyl sulfoxide (DMSO) (Sigma-Aldrich) at a concentration of 2000 μM. […]
The βnalysis of the morphology and fibril formation of samples coincubated with Aβ42 (10 μM) (GenScript) and the selected compounds (50 μM) at different time-points (6, 12, 24, and 48 h) at 37 °C, was assessed through TEM. […]

[2] = molecular target: T2, Aβ42 aggregation (Homo sapiens, UniProt P05067); assay: Thioflavin S assay of Aβ42 aggregation in E. coli cells overexpressing Aβ42; assay type: cell-based, Escherichia coli; conditions: read-out: Aβ42 inhibition %
T2 construct: expressed in transfected cells; host or cells: E. coli BL21 (DE3), pET vector
Outline: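 E. coli BL21(DE3) expressing Met-Aβ42 were grown in M9 medium with 25 μM ThS, induced with IPTG at OD600 0.6 and grown overnight at 37 °C with compound (final 10 μM). ThS emission at 485 nm (ex 445 nm, 25 °C) was normalised to OD600. Uninduced cells set 0% and induced DMSO cells 100%.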

[3] = test system: Aβ42 aggregates in SH-SY5Y (SHwt) cells; assay: Confocal microscopy (ThT) of Aβ42 aggregates in SH-SY5Y cells expressing APP695; conditions: 25 μM compound with Aβ42 10 μM, 48 h
Description: A stock solution of Aβ42 (GenScript) was prepared in DMSO to a concentration of 2000 μM. SH-SY5Y cells stably expressing wild-type APP695 (SHwt) were used. The cells were cultured in Dulbecco’s Modified Eagle Medium (DMEM, Gibco), supplemented with 10% of Fetal Bovine Serum (FBS, Sigma-Aldrich), and 2% of Pen-Strep-Glut (Gibco). […] 2.0 × 10^4 SH-WT cells were plated in 24-well plates and incubated for 24 h, in 12 ømm glass coverslips. […] Cells incubated with Aβ42 and 1% DMSO were used as the positive control. After this period, the medium was changed to fresh DMEM medium without FBS, and the cells were incubated for another 24 h. After the incubation period, cells were washed with PBS, fixed in 4% formaldehyde for 30 min, permeabilized with 0.2% Triton X-100 in PBS for 10 min and blocked with 1% BSA for 10 min. […] Cells were washed three times between each step. Coverslips with cells were mounted with CitiFluor MWL4–88 (Electron Microscopy Sciences).

T2 sequence (P05067 672-713): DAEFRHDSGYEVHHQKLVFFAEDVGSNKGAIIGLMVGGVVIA
T1 sequence (P05067 672-713 limits assumed): as the sequence (P05067 672-713) above

Row | Structure (SMILES) | Effect on Aβ42 fibril morphology (TEM) [1] | inhibition at 50 µM [2] | Reduction in intracellular Aβ42 aggregates (ThT fluorescence) [3]
1 | COc1ccc2c(=O)c3cc4c(cc3oc2c1)-c1cc(Cl)ccc1OC4 [Compound 11r, 2-Chloro-11-methoxy-6H,8H-chromeno[3,4-b]xanthen-8-one] | inhibiting Aβ42 fibrillogenesis | 57 ± 5.7% | approximately 70%
2 | C#CCN(CC#C)c1ccccc1/C=C/c1cc(=O)c2ccccc2o1 [Compound 10, (E)-2-{2-[Di(prop-2-yn-1-yl)amino]styryl}-4H-chromen-4-one] |  | 36 ± 18.3% | 
